Results: patent US11512090B2, “Muscarinic acetylcholine M1 receptor antagonists” (PIPELINE THERAPEUTICS, INC., priority 2018, dated 2022)
Where two headings read alike, the source gives them in different places.

How the values were obtained:
Type in all cases: cell-based
M2 = target: T1, M2 (Homo sapiens, UniProt P08172); experiment: In vitro functional assay of muscarinic acetylcholine receptor activity, M2
T1 sequence (P08172 1-466): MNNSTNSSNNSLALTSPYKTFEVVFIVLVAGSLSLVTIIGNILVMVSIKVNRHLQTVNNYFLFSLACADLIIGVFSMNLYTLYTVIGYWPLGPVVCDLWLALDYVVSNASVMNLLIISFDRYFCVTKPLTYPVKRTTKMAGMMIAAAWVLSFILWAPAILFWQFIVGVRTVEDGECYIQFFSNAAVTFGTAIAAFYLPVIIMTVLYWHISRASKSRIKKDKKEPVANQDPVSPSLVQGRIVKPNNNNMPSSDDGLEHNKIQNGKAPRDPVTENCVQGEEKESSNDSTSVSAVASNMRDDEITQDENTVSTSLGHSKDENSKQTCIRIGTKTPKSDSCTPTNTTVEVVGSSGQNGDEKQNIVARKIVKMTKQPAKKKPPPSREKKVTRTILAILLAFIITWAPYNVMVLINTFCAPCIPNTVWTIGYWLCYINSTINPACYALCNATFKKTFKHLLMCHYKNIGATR
Method: [The procedure below names another target; the source lists this target under the same test.] (§1) CHO-K1 cells stably expressing human M1 receptor with Aequorin (Perkin Elmer) were grown in F12 media, 10% FBS with 0.4 mg/mL geneticin and […]. Cells were grown to confluence and frozen down to be assayed at a later date. On the day of the experiment cells were thawed in a 37° C. water bath, resuspended in DMEM/HAM's F12 with HEPES (Invitrogen)+0.1% protease-free BSA (assay buffer), and spun down to remove freezing media. After centrifugation, supernatant was removed and 12 mL of assay buffer was added. Coelenterazine h (Promega) was added to the cells at a final concentration of 5 uM and incubated for 4 hours at room temperature in the dark. Compound master plate-96 deep well (Corning) were formatted in a 8-point DRC in assay buffer with 0.2% DMSO at a starting concentration of 60 uM (2×). After 4 hours of incubation, cells were plated at a concentration of 5×10^5 cells/well in 96 well white-walled, tissue culture-treated, clear-bottom plates (VWR). Compounds were added to the daughter plate, and cells plus compound were incubated at room temperature for 30 minutes in the dark.
(§2) Calcium flux was measured using the FlexStation 3 (Molecular Devices). To measure the antagonist dose-response, the EC80 of Acetylcholine was injected to the daughter plate using the automated compound transfer function of the Flex Station, and the increase in luminescence was measured over time. Antagonist activity was analyzed as a concentration dependent decrease in the EC80 acetylcholine response. Dose response curves were generated using Prism (GraphPad Software). The IC50 of the compounds was calculated from the dose response curve.

human M1 receptor = target: T2, human M1 receptor (Homo sapiens, UniProt P11229); experiment: In vitro functional assay of muscarinic acetylcholine receptor activity (aequorin calcium flux, antagonist mode vs EC80 acetylcholine), M1
T2 sequence (P11229 1-460): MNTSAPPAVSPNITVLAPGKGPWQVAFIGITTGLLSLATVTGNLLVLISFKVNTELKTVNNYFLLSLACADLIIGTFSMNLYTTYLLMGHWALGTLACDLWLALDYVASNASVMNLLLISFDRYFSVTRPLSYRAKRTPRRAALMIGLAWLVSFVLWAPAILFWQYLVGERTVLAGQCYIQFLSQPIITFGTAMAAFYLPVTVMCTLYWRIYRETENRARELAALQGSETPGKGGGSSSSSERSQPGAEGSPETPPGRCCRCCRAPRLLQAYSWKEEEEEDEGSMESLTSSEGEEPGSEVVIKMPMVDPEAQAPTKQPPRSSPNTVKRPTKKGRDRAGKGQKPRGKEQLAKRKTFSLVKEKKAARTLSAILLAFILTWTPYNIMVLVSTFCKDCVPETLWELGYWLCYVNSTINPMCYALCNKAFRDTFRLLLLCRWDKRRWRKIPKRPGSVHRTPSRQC
Method: as §1, §2

M3 = M3 (Homo sapiens, UniProt P20309); experiment: In vitro functional assay of muscarinic acetylcholine receptor activity, M3; settings: antagonist IC50 at M3; read-out: M3 IC50
M3, sequence (P20309 whole entry): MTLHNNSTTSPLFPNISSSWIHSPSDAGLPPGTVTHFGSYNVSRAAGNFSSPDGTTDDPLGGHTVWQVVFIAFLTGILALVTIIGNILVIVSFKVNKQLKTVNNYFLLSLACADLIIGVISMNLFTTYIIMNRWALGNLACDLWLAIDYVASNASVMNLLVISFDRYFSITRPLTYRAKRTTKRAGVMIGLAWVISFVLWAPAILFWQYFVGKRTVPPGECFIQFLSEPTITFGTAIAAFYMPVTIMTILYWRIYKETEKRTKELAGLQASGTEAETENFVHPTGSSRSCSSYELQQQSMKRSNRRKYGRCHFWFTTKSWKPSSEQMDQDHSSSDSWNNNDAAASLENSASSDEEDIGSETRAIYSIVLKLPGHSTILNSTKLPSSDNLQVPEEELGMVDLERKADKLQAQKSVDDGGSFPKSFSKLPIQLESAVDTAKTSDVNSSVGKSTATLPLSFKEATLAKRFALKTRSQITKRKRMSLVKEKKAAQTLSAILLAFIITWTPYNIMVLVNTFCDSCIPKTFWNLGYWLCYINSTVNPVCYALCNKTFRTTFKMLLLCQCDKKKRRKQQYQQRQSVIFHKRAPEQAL
Method: [The procedure below names another target; the source lists this target under the same test.] as §1, §2

[1] = CHO-K1 cells stably expressing human M1 receptor with Aequorin, decrease in EC80 acetylcholine response, read-out: M1 IC50
[2] = antagonist IC50 at M2, read-out: M2 IC50

Row | SMILES | IC50 (human M1 receptor; [1]) [nM] | IC50 (M3) [µM] | IC50 (M2; [2]) [nM] | IC50 (M2) [nM] | IC50 (human M1 receptor) [nM]
1 | O=C(N1CC(Oc2cccc3cnccc23)C1)N1C[C@H]2CC[C@@H](C1)N2c1ccc(F)cn1 [Example 3, ((1R,5S)-8-(5-fluoropyridin-2-yl)-3,8-diazabicyclo[3.2.1]octan-3-yl)(3-(isoquinolin-5-yloxy)azetidin-1-yl)methanone] | > 10000 | 1 to 10 | – | 100 to 1000 | –
2 | O=C(CCCc1cccc2ncccc12)N1CCN(c2ccncc2)CC1 [Example 4, 1-(4-(pyridin-4-yl)piperazin-1-yl)-4-(quinolin-5-yl)butan-1-one] | < 100 | 1 to 10 | 1000 to 10000 | – | –
3 | CC1CN(c2ccc(F)cn2)CCN1C(=O)[C@H]1C[C@H](Oc2cccc3ncsc23)C1 (stereo partly drawn) [Example 5, ((1R,3R)-3-(benzo[d]thiazol-7-yloxy)cyclobutyl)(4-(5-fluoropyridin-2-yl)-2-methylpiperazin-1-yl)methanone] | > 10000 | > 10 | > 10000 | – | –
4 | O=C(C1CN(Cc2cccc3ncsc23)C1)N1C[C@H]2CC[C@@H](C1)N2c1ccncc1F [Example 7] | 1000 to 10000 | > 10 | > 10000 | – | –
5 | O=C(CCNCc1cccc2ncsc12)N1C[C@H]2CC[C@@H](C1)N2c1ccncc1F [Example 8, 3-((benzo[d]thiazol-7-ylmethyl)amino)-1-((1R,5S)-8-(3-fluoropyridin-4-yl)-3,8-diazabicyclo[3.2.1]octan-3-yl)propan-1-one] | – | 1 to 10 | 1000 to 10000 | – | < 100
6 | O=C(C1CC1COc1cccc2ncsc12)N1C[C@H]2CC[C@@H](C1)N2c1ccncc1F (stereo partly drawn) [Example 9, (2-((benzo[d]thiazol-7-yloxy)methyl)-cyclopropyl)((1R,5S)-8-(3-fluoropyridin-4-yl)-3,8-diazabicyclo[3.2.1]octan-3-yl)methanone] | > 10000 | 1 to 10 | 1000 to 10000 | – | –
7 | O=C(CCNCc1cccc2ncccc12)N1C[C@H]2CC[C@@H](C1)N2c1ccncc1F [Example 10, 1-((1R,5S)-8-(3-fluoropyridin-4-yl)-3,8-diazabicyclo[3.2.1]octan-3-yl)-3-((quinolin-5-ylmethyl)amino)propan-1-one] | 1000 to 10000 | > 10 | > 10000 | – | –
8 | O=C(COCCc1cccc2ncccc12)N1C[C@H]2CC[C@@H](C1)N2c1ccncc1F [Example 11, 1-((1R,5S)-8-(3-fluoropyridin-4-yl)-3,8-diazabicyclo-[3.2.1]octan-3-yl)-2-(2-(quinolin-5-yl)ethoxy)ethan-1-one] | – | > 10 | 1000 to 10000 | – | 100 to 1000
9 | O=C(CCOCc1cccc2nccn12)N1C[C@H]2CC[C@@H](C1)N2c1ccncc1F [Example 12, 1-((1R,5S)-8-(3-fluoropyridin-4-yl)-3,8-diazabicyclo[3.2.1]octan-3-yl)-3-(imidazo[1,2-a]pyridin-5-ylmethoxy)propan-1-one] | – | > 10 | 1000 to 10000 | – | 100 to 1000
10 | O=C(CCNCc1cccc2nccn12)N1CC2CCC(C1)N2c1ccncc1F [Example 14, 1-[8-(3-fluoropyridin-4-yl)-3,8-diazabicyclo[3.2.1]octan-3-yl]-3-[([imidazo[1,2-a]pyridin-5-yl]methyl)amino]propan-1-one] | – | > 10 | > 10000 | – | 100 to 1000
11 | O=C(CNCCc1cccc2ncsc12)N1CC2CCC(C1)N2c1ccncc1F [Example 15, 2-[[2-(1,3-benzothiazol-7-yl)ethyl]amino]-1-[8-(3-fluoropyridin-4-yl)-3,8-diazabicyclo[3.2.1]octan-3-yl]ethan-1-one] | – | > 10 | 1000 to 10000 | – | 100 to 1000
12 | COc1cnc2cccc(S(=O)(=O)CCCC(=O)N3CCN(c4ncc(F)cc4C)C[C@@H]3C)c2c1 [Example 17, (S)-1-(4-(5-fluoro-3-methylpyridin-2-yl)-2-methylpiperazin-1-yl)-4-((3-methoxyquinolin-5-yl)sulfonyl)butan-1-one] | 100 to 1000 | 1 to 10 | 100 to 1000 | – | –
13 | C[C@H]1CN(c2ccnc(N)c2)CCN1C(=O)CCS(=O)(=O)c1cccc2ncsc12 [Example 21, (S)-1-(4-(2-aminopyridin-4-yl)-2-methylpiperazin-1-yl)-3-(benzo[d]thiazol-7-ylsulfonyl)propan-1-one] | < 100 | 1 to 10 | 100 to 1000 | – | –
14 | N#Cc1ccc(N2C3CCC2CN(C(=O)CCS(=O)(=O)c2cccc4ncsc24)C3)nc1 [Example 24, 6-{3-[3-(1,3-benzothiazole-7-sulfonyl)propanoyl]-3,8-diazabicyclo[3.2.1]octan-8-yl}pyridine-3-carbonitrile] | – | 0.1 to 1 | 100 to 1000 | – | < 100
15 | Cc1cc(C#N)ncc1N1CCN(C(=O)CCS(=O)(=O)c2cccc3ncsc23)[C@@H](C)C1 [Example 25, 5-[(3S)-4-[3-(1,3-benzothiazole-7-sulfonyl)propanoyl]-3-methylpiperazin-1-yl]-4-methylpyridine-2-carbonitrile] | < 100 | > 10 | 100 to 1000 | – | –

The next lines start with results.

Row | IC50 (human M1 receptor; [1]) [nM] | IC50 (M3) [µM] | IC50 (M2; [2]) [nM] | SMILES | IC50 (M2) [nM] | IC50 (human M1 receptor) [nM]
16 | 100 to 1000 | 1 to 10 | 1000 to 10000 | Cc1cc(F)cnc1N1CCN(C(=O)CNCc2cccc3ncccc23)[C@@H](C)C1 [Example 13, 1-[(2S)-4-(5-fluoro-3-methylpyridin-2-yl)-2-methylpiperazin-1-yl]-2-[[(quinolin-5-yl)methyl]amino]ethanone] | – | –
17 | 100 to 1000 | > 10 | 1000 to 10000 | O=C(CCS(=O)(=O)c1cccc2ncsc12)N1CCN(c2ccncc2F)CC1 [Example 16, 3-(benzo[d]thiazol-7-ylsulfonyl)-1-(4-(3-fluoropyridin-4-yl)piperazin-1-yl)propan-1-one] | – | –
18 | < 100 | 1 to 10 | 1000 to 10000 | Cc1cc(F)cnc1N1CCN(C(=O)CCS(=O)(=O)c2cccc3ncsc23)[C@@H](C)C1 [Example 18, 3-(1,3-benzothiazole-7-sulfonyl)-1-[(2S)-4-(5-fluoro-3-methylpyridin-2-yl)-2-methylpiperazin-1-yl]propan-1-one] | – | –
19 | < 100 | > 10 | 100 to 1000 | C[C@@H]1CN(c2ccncc2Cl)CCN1C(=O)CCS(=O)(=O)c1cccc2ncsc12 [Example 19, 3-(1,3-benzothiazole-7-sulfonyl)-1-[(2R)-4-(3-chloropyridin-4-yl)-2-methylpiperazin-1-yl]propan-1-one] | – | –
20 | 100 to 1000 | 1 to 10 | 1000 to 10000 | O=C(CCS(=O)(=O)c1cccc2ncsc12)N1CCC(c2ccc(C(F)(F)F)cn2)CC1 [Example 22, 3-(1,3-benzothiazole-7-sulfonyl)-1-[4-[5-(trifluoromethyl)pyridin-2-yl]piperidin-1-yl]propan-1-one] | – | –
21 | < 100 | 1 to 10 | 1000 to 10000 | C[C@@H]1CN(c2ccc(F)c(C#N)c2)CCN1C(=O)CCCc1cccc2ncccc12 [Example 23, (R)-2-fluoro-5-(3-methyl-4-(4-(quinolin-5-yl)butanoyl)piperazin-1-yl)benzonitrile] | – | –
22 | 100 to 1000 | > 10 | > 10000 | C[C@H]1CN(c2c[nH]c(=O)cc2Cl)CCN1C(=O)CCS(=O)(=O)c1cccc2ncsc12 [Example 26, 5-[(3S)-4-[3-(1,3-benzothiazole-7-sulfonyl)propanoyl]-3-methylpiperazin-1-yl]-4-chloro-1,2-dihydropyridin-2-one] | – | –
